The values below come from patent US20150320892A1, “IMAGING FIBROSIS” (GE Healthcare Limited, priority 2012, published 2015).

pIC50: −log10 of the molar value. Structures can show the parent of a compound that is named as a salt.

Series [1] can be described thus: Biodistribution of 99mTc-Compound 2 in naive rats. Also noted: species or system Male Sprague-Dawley rats. As to conditions: rat. How it is done:
Male Sprague-Dawley rats (231±10 g) were group housed in batches of four, with ad libitum access to food and water. […] At various times post injection (2, 30, 60 and 120 minutes) animals were euthanised (n=3 per timepoint), dissected.
Data above are presented as % injected dose (mean±SD; n=3 animals per timepoint).

Series [2] in a line: Metabolism study of Compound 2 in naive rats (plasma, HPLC). It is filed as in vivo, male rats. The procedure:
The in vivo metabolic profile of Compound 2 was determined after intravenous administration to male rats. Post mortem blood was obtained at 60 minutes post injection and centrifuged to separate plasma.
Analysis was carried out by HPLC with prior extraction of Compound 2 from plasma using solid phase extraction (HLB cartridges; Waters). Briefly, cartridges were conditioned with 5 ml, acetonitrile, followed by 2×5 mL water. Plasma was loaded onto the cartridge and then washed with water (2% acetonitrile). Compound 2 was eluted from the cartridge with 7.5 mL water (0.1% TFA) with acetonitrile (0.1% TFA) as a 50:50 ratio.
The extract was evaporated to dryness and reconstituted in 2 mL starting mobile phase (4% acetonitrile (0.1% TFA) and water (0.1% TFA).
0.5 mL of the reconstituted extract anlaysed by HPLC using the same analytical conditions as mentioned above in Example 3 for Compound 2.

In a further series the target is T1, recombinant human FAP (Homo sapiens, UniProt Q12884).
T1 construct: purchased BPS Bioscience
T1 sequence (Q12884 1-760): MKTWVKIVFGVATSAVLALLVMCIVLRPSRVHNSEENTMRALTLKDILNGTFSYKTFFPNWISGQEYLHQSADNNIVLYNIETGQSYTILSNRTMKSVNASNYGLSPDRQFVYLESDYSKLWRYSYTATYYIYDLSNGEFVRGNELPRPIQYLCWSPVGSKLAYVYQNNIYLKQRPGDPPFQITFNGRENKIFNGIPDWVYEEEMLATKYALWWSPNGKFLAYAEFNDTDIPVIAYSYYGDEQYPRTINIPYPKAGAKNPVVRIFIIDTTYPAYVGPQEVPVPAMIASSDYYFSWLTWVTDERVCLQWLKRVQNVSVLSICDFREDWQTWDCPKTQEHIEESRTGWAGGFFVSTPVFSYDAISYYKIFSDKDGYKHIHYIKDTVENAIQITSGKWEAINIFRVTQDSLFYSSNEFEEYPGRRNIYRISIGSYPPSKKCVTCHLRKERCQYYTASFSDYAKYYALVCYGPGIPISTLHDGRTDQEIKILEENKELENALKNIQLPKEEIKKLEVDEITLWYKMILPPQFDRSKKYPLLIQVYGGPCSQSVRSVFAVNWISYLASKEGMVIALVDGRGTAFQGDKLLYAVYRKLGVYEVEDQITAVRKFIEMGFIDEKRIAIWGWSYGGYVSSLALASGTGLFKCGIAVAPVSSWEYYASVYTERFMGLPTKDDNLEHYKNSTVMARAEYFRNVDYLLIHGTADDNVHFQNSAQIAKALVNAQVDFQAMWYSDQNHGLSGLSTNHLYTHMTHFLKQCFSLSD
The series can be described thus: FAP assay kit (BPS Bioscience), inhibition of enzymatic activity, Gly-Pro-AMC fluorogenic substrate. It is filed as biochemical. As to conditions: for pIC50: recombinant human FAP, 30 min, 22° C. How it is done: (§1) The assay uses the fluorogenic substrate Gly-Pro-Aminomethylcoumarin (AMC) to measure either FAP or DPP-IV activity.
(§2) The enzyme activities were assayed in a total volume of 100 uL for 10 min (DPP-IV) and 30 min (FAP) at 22° C. The inhibitors were dissolved in DMSO. IC50 values were computed using GraphPad Prism 4.

For another series, the target named is T2, recombinant human DPP-IV (Homo sapiens, UniProt P27487).
T2 construct: purchased BPS Bioscience
The series can be described thus: DPP-IV assay kit (BPS Bioscience), inhibition of enzymatic activity, Gly-Pro-AMC fluorogenic substrate. It is filed as biochemical. As to conditions: 10 min, 22° C. How it is done: as §1, §2

T2 sequence (P27487 whole entry): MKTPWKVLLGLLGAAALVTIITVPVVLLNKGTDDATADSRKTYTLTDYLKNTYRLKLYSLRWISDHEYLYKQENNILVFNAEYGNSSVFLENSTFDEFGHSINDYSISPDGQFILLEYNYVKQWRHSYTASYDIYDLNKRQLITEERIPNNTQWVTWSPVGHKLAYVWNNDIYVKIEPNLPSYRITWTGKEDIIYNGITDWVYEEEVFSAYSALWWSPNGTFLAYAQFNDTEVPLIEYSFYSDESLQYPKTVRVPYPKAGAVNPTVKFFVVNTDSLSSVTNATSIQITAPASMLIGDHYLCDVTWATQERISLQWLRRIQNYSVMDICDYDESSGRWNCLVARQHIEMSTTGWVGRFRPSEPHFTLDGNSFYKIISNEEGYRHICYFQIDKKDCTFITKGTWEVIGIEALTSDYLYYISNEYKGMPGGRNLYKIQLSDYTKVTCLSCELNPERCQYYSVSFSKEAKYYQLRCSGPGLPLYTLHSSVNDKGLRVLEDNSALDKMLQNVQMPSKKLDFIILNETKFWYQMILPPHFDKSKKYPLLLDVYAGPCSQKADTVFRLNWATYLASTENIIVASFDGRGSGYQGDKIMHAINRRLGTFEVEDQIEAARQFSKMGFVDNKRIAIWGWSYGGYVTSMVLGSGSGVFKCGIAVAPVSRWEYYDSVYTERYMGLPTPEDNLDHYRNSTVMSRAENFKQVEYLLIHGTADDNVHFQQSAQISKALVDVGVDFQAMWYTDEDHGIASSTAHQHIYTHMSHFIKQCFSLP

Consider `NCCNCC(CNCCN)CC(=O)NCCCCCC(=O)NCC(=O)N1CCC[C@H]1B(O)O` [Compound 2, (R) (1-(2-(6-(4-((2-aminoethyl)amino)-3-(((2-aminoethyl)amino)methyl)butanamido)hexanamido)acetyl)pyrrolidin-2-yl)boronic acid], for which the “biodistribution for in vivo imaging purposes (in words)” value in series [1] is given as “good biodistribution”. Moreover, in series [2] (male rats, intravenous, plasma 60 minutes after injection), the “Compound 2 still present in the plasma sample” value is “Approximately 80%”. Besides, the “in vivo metabolic profile (in words)” value in series [2] (rat, in vivo) is given as “good in vivo metabolic profile”.

The pIC50 is the negative decadic logarithm of the IC50, by convention in mol/L. As for `N#Cc1ccc(NCCNCC(=O)N2CCCC2C#N)nc1` (centres unmarked) [DPP-IV reference, NVP DPP 728 hydrochloride, reference compound], the pIC50 at recombinant human FAP is less than 4.00.

In the case of `O=C(NCC(=O)N1CCC[C@H]1B(O)O)c1cccc2ccccc12` [FAP reference, (R)-(1-(2-(1-naphthamido)acetyl)pyrrolidin-2-yl)boronic acid, reference compound], the negative logarithm of the IC50 (pIC50) on recombinant human DPP-IV is less than 4.30.

Consider “(R)-(1-(2-(6-(4-((2-aminoethyl)amino)-3-(((2-aminoethyl)amino)methyl)butanamido)hexanamido)acetyl)pyrrolidin-2-yl)boronic acid, dioxorhenium(V)salt [Compound 1]”, for which the figures for the negative logarithm of the IC50 (pIC50) on recombinant human DPP-IV and at recombinant human FAP were less than 4.30 and 8.05, respectively. Moreover, the “affinity for FAP (in words)” value on recombinant human FAP (in vitro assay) was “high and selective affinity for FAP”.
